Results from ChEMBL document CHEMBL1201862, “PubChem BioAssay data set” (2004).
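Exposure lasted 48 hours, with cells grown in 96-well plates and compounds tested at five concentrations. Abbreviation: GI50, concentration required for 50% inhibition of growth.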 Activity calls are given as the source filed them. Rule as the data show it: active = GI50 up to about 1.1 µM and inactive = higher.

Legend:
Test in all cases: growth of human tumour cells (NCI), 48 h
[1] = tested on: Malme-3M
[2] = tested on: IGROV-1
[3] = tested on: HCT-15
[4] = tested on: NCI-H460
[5] = tested on: NCI-H226
[6] = tested on: CAKI-1
[7] = tested on: OVCAR-8
[8] = tested on: SK-OV-3
[9] = tested on: KM12
[10] = tested on: OVCAR-5
[11] = tested on: COLO 205
[12] = tested on: SK-MEL-28
[13] = tested on: U-251
[14] = tested on: MDA-MB-435
[15] = tested on: TK-10
[16] = tested on: SK-MEL-2
[17] = tested on: M14
[18] = tested on: SNB-75
[19] = tested on: HOP-92
[20] = tested on: HL-60

Row | SMILES | GI50 [1] | GI50 [2] | GI50 [3] [µM] | GI50 [4] | GI50 [5] | GI50 [6] | GI50 [7] | GI50 [8] | GI50 [9] | GI50 [10] | GI50 [11] | GI50 [12] | GI50 [13] | GI50 [14] | GI50 [15] | GI50 [16] | GI50 [17] | GI50 [18] | GI50 [19] | GI50 [20]
1 | CC1=CC(O)(c2ccccc2)C(N2CCOCC2)N1O (centres undefined) | > 100 µM (inactive) | > 100 µM (inactive) | > 100 | > 100 µM (inactive) | > 100 µM (inactive) | > 100 µM (inactive) | > 100 µM (inactive) | > 100 µM (inactive) | > 100 µM (inactive) | > 100 µM (inactive) | > 100 µM (inactive) | > 100 µM (inactive) | > 100 µM (inactive) | > 100 µM (inactive) | > 100 µM (inactive) | 81.1 µM (inactive) | > 100 µM (inactive) |  |  | 
2 | CCCCNc1nc(C#N)c(N)s1 | > 100 µM (inactive) | > 100 µM (inactive) | > 100 | > 100 µM (inactive) | > 100 µM (inactive) | > 100 µM (inactive) | > 100 µM (inactive) | > 100 µM (inactive) | > 100 µM (inactive) | > 100 µM (inactive) | > 100 µM (inactive) | > 100 µM (inactive) | > 100 µM (inactive) |  | > 100 µM (inactive) | > 100 µM (inactive) | > 100 µM (inactive) | > 100 µM (inactive) | > 100 µM (inactive) | > 100 µM (inactive)
3 | COc1ccc(CC2NCCc3cc(OC)c(OC)cc32)cc1 (centres undefined) | > 100 µM (inactive) | > 100 µM (inactive) | > 100 | > 100 µM (inactive) | > 100 µM (inactive) | > 100 µM (inactive) | > 100 µM (inactive) | > 100 µM (inactive) | > 100 µM (inactive) | > 100 µM (inactive) | > 100 µM (inactive) | > 100 µM (inactive) | > 100 µM (inactive) |  | > 100 µM (inactive) | > 100 µM (inactive) | > 100 µM (inactive) | > 100 µM (inactive) | 57.4 µM (inactive) | > 100 µM (inactive)
4 | N#Cc1cccc(NC(=O)c2ccc(C(=O)O)c(C(=O)c3ccc(C(=O)O)c(C(=O)Nc4cccc(C#N)c4)c3)c2)c1 | > 100 µM (inactive) | > 100 µM (inactive) | > 100 | > 100 µM (inactive) | > 100 µM (inactive) | > 100 µM (inactive) | > 100 µM (inactive) | > 100 µM (inactive) | > 100 µM (inactive) | > 100 µM (inactive) | > 100 µM (inactive) |  | > 100 µM (inactive) |  | > 100 µM (inactive) | > 100 µM (inactive) | > 100 µM (inactive) | > 100 µM (inactive) | > 100 µM (inactive) | > 100 µM (inactive)
5 | C[Si](C)(C)/C(Br)=C\CCN1C(=O)CCC1=O | > 100 µM (inactive) | > 100 µM (inactive) | > 100 | > 100 µM (inactive) | > 100 µM (inactive) | > 100 µM (inactive) | > 100 µM (inactive) | > 100 µM (inactive) | > 100 µM (inactive) | > 100 µM (inactive) | > 100 µM (inactive) | > 100 µM (inactive) | > 100 µM (inactive) |  | > 100 µM (inactive) | > 100 µM (inactive) | > 100 µM (inactive) | > 100 µM (inactive) | > 100 µM (inactive) | > 100 µM (inactive)
6 | CCCCCCCCCCCCCC(=O)O[C@H]1CC[C@H](NC(=O)[C@H](OC)[C@H](O)[C@@H](O)[C@H](O)/C=C/C(C)C)C(=O)N(C)C1 [BENGAMIDE B] | 0.0362 µM (active) | 0.00235 µM (active) | 0.028 | < 0.0015 µM (active) | 0.00592 µM (active) | 0.0216 µM (active) | 0.00782 µM (active) | 0.0721 µM (active) | 0.00418 µM (active) | 4.65 µM (inactive) | 0.00259 µM (active) | 0.0113 µM (active) | 0.00286 µM (active) |  | 0.179 µM (active) | 0.0334 µM (active) | 0.0128 µM (active) | 0.105 µM (active) | 0.00684 µM (active) | 0.01 µM (active)
7 | CN(C)CC[N+]1=Nc2cccc3cccc(c23)N1 | > 100 µM (inactive) | 61.8 µM (inactive) | 62.7 | 16.9 µM (inactive) | 71 µM (inactive) | 31 µM (inactive) | 43.6 µM (inactive) | > 100 µM (inactive) | > 100 µM (inactive) | > 94 µM (inactive) | 31.2 µM (inactive) | > 100 µM (inactive) | > 68.5 µM (inactive) |  | > 100 µM (inactive) | > 100 µM (inactive) | > 100 µM (inactive) | > 76.6 µM (inactive) | 34.2 µM (inactive) | 24.3 µM (inactive)
8 | Nc1ccc(C(=O)NN2C(=O)C(Cl)C2c2cccc(O)c2)cc1 (centres undefined) | 20.3 µM (inactive) | 14.4 µM (inactive) | 12.7 | 14 µM (inactive) | 18.5 µM (inactive) | 20.4 µM (inactive) | 19.9 µM (inactive) | 19.5 µM (inactive) | 10.7 µM (inactive) | 22.2 µM (inactive) | 17.1 µM (inactive) | 16.9 µM (inactive) | 12.5 µM (inactive) |  | 16.7 µM (inactive) | 15 µM (inactive) | 19.4 µM (inactive) | 22.3 µM (inactive) | 17.4 µM (inactive) | 1.69 µM (inactive)
